Experimental data: ChEMBL document CHEMBL4017445, “Development and crystallographic evaluation of histone H3 peptide with N-terminal serine substitution as a potent inhibitor of lysine-specific demethylase 1” (Bioorg Med Chem, 2017)

Target: Lysine-specific histone demethylase 1A (Homo sapiens, UniProt O60341)
Assay: Inhibition of human LSD1 (172 to 833 residues) assessed as reduction in H2O2 production using H3K4me2 (1 to 20 residues) peptide as substrate preincubated for 10 mins followed by substrate addition measured after 30 mins by peroxidase coupled enzyme assay

CSCC[C@H](NC(=O)[C@@H](NC(=O)[C@@H](N)CCCNC(=N)N)[C@@H](C)O)C(=O)N[C@@H](CCC(N)=O)C(=O)N[C@H](C(=O)N[C@@H](C)C(=O)N[C@@H](CCCNC(=N)N)C(=O)N[C@@H](CCCCN)C(=O)N[C@@H](CO)C(=O)N[C@H](C(=O)NCC(=O)NCC(=O)N[C@@H](CCCCN)C(=O)N[C@@H](C)C(=O)N1CCC[C@H]1C(=O)N[C@@H](CCCNC(=N)N)C(=O)N[C@@H](CCCCN)C(=O)N[C@@H](CCC(N)=O)C(=O)N[C@@H](CC(C)C)C(N)=O)[C@@H](C)O)[C@@H](C)O
Ki: > 500 µM

CSCC[C@H](NC(=O)[C@@H](NC(=O)[C@H](CCCNC(=N)N)NC(=O)CO)[C@@H](C)O)C(=O)N[C@@H](CCC(N)=O)C(=O)N[C@H](C(=O)N[C@@H](C)C(=O)N[C@@H](CCCNC(=N)N)C(=O)N[C@@H](CCCCN)C(=O)N[C@@H](CO)C(=O)N[C@H](C(=O)NCC(=O)NCC(=O)N[C@@H](CCCCN)C(=O)N[C@@H](C)C(=O)N1CCC[C@H]1C(=O)N[C@@H](CCCNC(=N)N)C(=O)N[C@@H](CCCCN)C(=O)N[C@@H](CCC(N)=O)C(=O)N[C@@H](CC(C)C)C(N)=O)[C@@H](C)O)[C@@H](C)O
Ki: 170 µM
